The experiment deals with BDF1 mice, P388 leukemia ip, median survival T/C. Kind of experiment: NCI In Vivo Anticancer Drug Screen. Data for tumor model P388 Leukemia (intraperitoneal) in B6D2F1 (BDF1) mice. Conditions: endpoint: median survival time, higher = longer survival. The essentials:
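Read-out is survival of treated animals expressed relative to the vehicle group, as a T/C ratio.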

The mark [1] stands for this setting: dose: 12.5 mg/kg/injection, schedule: Q01DX009 (ip), vehicle: water.
The mark [2] stands for this setting: dose: 25.0 mg/kg/injection, schedule: Q01DX009 (ip), vehicle: water.
The mark [3] stands for this setting: dose: 50.0 mg/kg/injection, schedule: Q01DX009 (ip), vehicle: water.
[4] abbreviates: dose: 50.0 mg/kg/injection, schedule: Q04DX003 (ip), vehicle: water.
Setting [5] is: dose: 100.0 mg/kg/injection, schedule: Q01DX009 (ip), vehicle: water.
Setting [6] is: dose: 100.0 mg/kg/injection, schedule: Q04DX003 (ip), vehicle: water.
Setting [7] is: dose: 200.0 mg/kg/injection, schedule: Q04DX003 (ip), vehicle: water.
[8] abbreviates: dose: 12.5 mg/kg/injection, schedule: Q01DX009 (ip), vehicle: saline.
Where [9] appears, read: dose: 25.0 mg/kg/injection, schedule: Q01DX009 (ip), vehicle: saline.
Where [10] appears, read: dose: 50.0 mg/kg/injection, schedule: Q01DX009 (ip), vehicle: saline.
[11] abbreviates: dose: 50.0 mg/kg/injection, schedule: Q04DX003 (ip), vehicle: saline.
[12] abbreviates: dose: 100.0 mg/kg/injection, schedule: Q04DX003 (ip), vehicle: saline.
Setting [13] is: dose: 100.0 mg/kg/injection, schedule: Q04DX003 (ip), vehicle: Klucel (hydroxypropylcellulose) (HPC).
The mark [14] stands for this setting: dose: 200.0 mg/kg/injection, schedule: Q01DX009 (ip), vehicle: Klucel (hydroxypropylcellulose) (HPC).
Setting [15] is: dose: 200.0 mg/kg/injection, schedule: Q04DX003 (ip), vehicle: Klucel (hydroxypropylcellulose) (HPC).
The mark [16] stands for this setting: dose: 400.0 mg/kg/injection, schedule: Q04DX003 (ip), vehicle: Klucel (hydroxypropylcellulose) (HPC).
Where [17] appears, read: dose: 6.25 mg/kg/injection, schedule: Q01DX009 (ip), vehicle: saline.
Where [18] appears, read: dose: 50.0 mg/kg/injection, schedule: Q01DX009 (ip), vehicle: other.
[19] abbreviates: dose: 100.0 mg/kg/injection, schedule: Q04DX003 (ip), vehicle: other.
[20] abbreviates: dose: 200.0 mg/kg/injection, schedule: Q04DX003 (ip), vehicle: other.
Setting [21] is: dose: 400.0 mg/kg/injection, schedule: Q04DX003 (ip), vehicle: other.
[22] abbreviates: dose: 50.0 mg/kg/injection, schedule: Q01DX009 (ip), vehicle: saline with Tween-80.
The mark [23] stands for this setting: dose: 100.0 mg/kg/injection, schedule: Q01DX009 (ip), vehicle: saline with Tween-80.
[24] abbreviates: dose: 200.0 mg/kg/injection, schedule: Q01DX009 (ip), vehicle: saline with Tween-80.

Each structure is given as a SMILES string. Several values for one entry are separate records, joined by “and”; a condition that tells them apart may be missing. Equal values may be shown once. Inconclusive results and toxic doses are left out.

Turning to `BrCCC1(CCBr)CCCCC1`, the T/C reads like this: under setting [1], 113 % of control; under setting [2], 97 % of control; under setting [3], 96 % of control; under setting [4], 106 % of control; under setting [5], 99 % of control; under setting [6], 111 % of control. Besides, the T/C runs as follows: (dose: 200.0 mg/kg/injection, schedule: Q01DX009 (ip), vehicle: water) 108 % of control; under setting [7], 106 % of control; (dose: 300.0 mg/kg/injection, schedule: Q04DX003 (ip), vehicle: water) 107 % of control; (dose: 400.0 mg/kg/injection, schedule: Q01DX009 (ip), vehicle: water) 118 % of control; (dose: 400.0 mg/kg/injection, schedule: Q04DX003 (ip), vehicle: water) 122 % of control; (dose: 500.0 mg/kg/injection, schedule: Q04DX003 (ip), vehicle: water) 109 % of control.

Consider `C1CCN(NC2=NCCO2)CC1`, for which the T/C reads like this: under setting [8], 95 % of control; under setting [9], 108 % of control; under setting [10], 100 % of control.

Turning to `O=C1c2cccc3cc([N+](=O)[O-])cc(c23)C(=O)N1CCN1CCCC1`, the T/C by setting is: (dose: 6.25 mg/kg/injection, schedule: Q01DX009 (ip), vehicle: saline with Tween-80) 157 % of control; (dose: 12.5 mg/kg/injection, schedule: Q01DX009 (ip), vehicle: saline with Tween-80) 177 % of control.

Turning to `Cc1cc2nc3ccc(=[N+](C)C)cc-3sc2cc1N`, the T/C was 90 % of control and 113 % of control under setting [9]; 109 % of control and 96 % of control (dose: 25.0 mg/kg/injection, schedule: Q04DX003 (ip), vehicle: saline); 100 % of control and 113 % of control under setting [10]; 114 % of control under setting [11]; 121 % of control under setting [12].

For the compound `COc1ccccc1/C=C/c1ccnc2ccccc12`, the T/C is 95 % of control (dose: 100.0 mg/kg/injection, schedule: Q01DX009 (ip), vehicle: Klucel (hydroxypropylcellulose) (HPC)); 110 % of control under setting [13]; 113 % of control under setting [14]; 115 % of control under setting [15]; 122 % of control (dose: 400.0 mg/kg/injection, schedule: Q01DX009 (ip), vehicle: Klucel (hydroxypropylcellulose) (HPC)); 105 % of control under setting [16].

With `CSC(=S)NN=C(C)C`, the T/C (dose: 3.13 mg/kg/injection, schedule: Q01DX009 (ip), vehicle: saline with Tween-80) was 96 % of control.

For `O=[N+]([O-])c1ccc(NC2CCCCC2)c2c1no[n+]2[O-]`, the T/C by setting is: under setting [17], 95 % of control; under setting [8], 97 % of control; under setting [9], 95 % of control.

In the case of `O=c1cc(-c2ccccc2)nc2c(Cl)cc(Cl)cn12`, the T/C is 89 % of control under setting [13], 100 % of control under setting [15] and 96 % of control under setting [16].

With `CC(C(=O)O)C(=O)O.[NH2-].[NH2-].[Pt+2]`, the T/C is, setting by setting: under setting [17], 93 % of control; under setting [9], 214 % of control.

Regarding `COc1ccc(Cc2ccccc2)c(O)c1`, the T/C reads like this: under setting [18], 108 % of control; (dose: 100.0 mg/kg/injection, schedule: Q01DX009 (ip), vehicle: other) 104 % of control; under setting [19], 109 % of control; (dose: 200.0 mg/kg/injection, schedule: Q01DX009 (ip), vehicle: other) 116 % of control; under setting [20], 104 % of control; under setting [21], 109 % of control.

For the compound `O=C1c2ccccc2C(=O)c2c(NCCN3CCCCC3)ccc(NCCN3CCCCC3)c21`, under setting [18], the T/C is 115 % of control.

`CCCCOCNc1ncccn1`: the T/C by setting is: under setting [22], 100 % of control and 105 % of control; under setting [23], 98 % of control and 112 % of control; under setting [24], 100 % of control.

As for `NNc1ccc([N+](=O)[O-])c2[nH][nH]c(=O)c12`, the T/C by setting is: under setting [22], 105 % of control; under setting [23], 107 % of control; under setting [24], 107 % of control.

Turning to `CCC1c2ccc3cc(OC)ccc3c2C(=O)CC1C(=O)O` (centres undefined), the T/C runs as follows: (dose: 100.0 mg/kg/injection, schedule: Q04DX003 (sc), vehicle: steriod suspending solution) 113 % of control; (dose: 200.0 mg/kg/injection, schedule: Q04DX003 (sc), vehicle: steriod suspending solution) 100 % of control; (dose: 400.0 mg/kg/injection, schedule: Q04DX003 (sc), vehicle: steriod suspending solution) 95 % of control.

Consider `CC(=O)OCc1cc2cc(O)ccc2nc1C`, for which the T/C is 98 % of control under setting [9]; 107 % of control under setting [10]; 111 % of control under setting [11]; 101 % of control (dose: 100.0 mg/kg/injection, schedule: Q01DX009 (ip), vehicle: saline); 110 % of control and 115 % of control under setting [12]; 116 % of control (dose: 200.0 mg/kg/injection, schedule: Q01DX009 (ip), vehicle: saline). In addition, the T/C reads like this: (dose: 200.0 mg/kg/injection, schedule: Q04DX003 (ip), vehicle: saline) 92 % of control and 110 % of control; (dose: 400.0 mg/kg/injection, schedule: Q01DX009 (ip), vehicle: saline) 91 % of control; (dose: 400.0 mg/kg/injection, schedule: Q04DX003 (ip), vehicle: saline) 97 % of control and 104 % of control and 116 % of control.

For `O=C1CC2OCC=C3CN4CCC56c7ccccc7N1C5C2C3CC46` (centres undefined) (tested in a mixture with another compound), the T/C by setting is: (dose: 0.5 mg/kg/injection, schedule: Q04DX003 (ip), vehicle: saline + alcohol) 95 % of control; (dose: 1.0 mg/kg/injection, schedule: Q04DX003 (ip), vehicle: saline + alcohol) 110 % of control.

Take `S=C1N=C2c3ccccc3C2C(=S)S1` (centres undefined): the T/C is 109 % of control under setting [22]; 98 % of control under setting [23]; 94 % of control (dose: 150.0 mg/kg/injection, schedule: Q01DX009 (ip), vehicle: saline with Tween-80).

As to `Cc1ccn2c(CCc3nnc4cc(C)ccn34)nnc2c1`, the T/C under setting [22] is 90 % of control, the T/C under setting [23] was 93 % of control and the T/C under setting [24] was 106 % of control.

As to `CCCC[P+](c1ccccc1)(c1ccccc1)c1ccccc1`, the T/C (dose: 0.6 mg/kg/injection, schedule: Q01DX009 (ip), vehicle: saline) is 122 % of control; the T/C (dose: 1.2 mg/kg/injection, schedule: Q01DX009 (ip), vehicle: saline) was 105 % of control; the T/C (dose: 2.5 mg/kg/injection, schedule: Q01DX009 (ip), vehicle: saline) was 150 % of control; the T/C (dose: 5.0 mg/kg/injection, schedule: Q01DX009 (ip), vehicle: saline) was 115 % of control; the T/C (dose: 40.0 mg/kg/injection, schedule: Q01DX009 (ip), vehicle: saline) was 95 % of control.

With `Nc1cc(OCc2ccccc2)cc(OCc2ccccc2)c1`, the T/C is, setting by setting: (dose: 6.25 mg/kg/injection, schedule: Q01DX009 (ip), vehicle: water) 96 % of control; under setting [1], 96 % of control and 101 % of control; (dose: 12.5 mg/kg/injection, schedule: Q04DX003 (ip), vehicle: water) 105 % of control; under setting [2], 99 % of control and 105 % of control; (dose: 25.0 mg/kg/injection, schedule: Q04DX003 (ip), vehicle: water) 99 % of control; under setting [3], 97 % of control and 98 % of control. For the same compound, the T/C under setting [4] is 99 % of control; the T/C under setting [5] was 92 % of control and 100 % of control; the T/C under setting [6] was 106 % of control and 107 % of control and 108 % of control; the T/C under setting [7] is 95 % of control and 96 % of control.

Consider `Fc1ccc(CSc2ncnc3c2ncn3C2CCCCO2)cc1` (centres undefined), for which the T/C was 100 % of control under setting [19], 100 % of control under setting [14], 100 % of control under setting [20] and 105 % of control under setting [21].

The values are drawn from PubChem BioAssay AID328 (DTP/NCI, 2004).
